{"source": "patent US6673968B1", "about": "“Method of producing n-(4,5-bis-methanesulfonyl-2-methyl-benzoyl)-guanidine, the hydrochloride thereof” (Merck Patent Gesellschaft mit beschränkter Haftung, priority 1999, dated 2004)", "type_in_all_cases": "in vivo", "key": {"[1]": {"experiment": "bioavailability after oral administration (AUCpo/AUCiv), dogs", "conditions": "dog, plasma, oral vs intravenous, dose-standardised AUCpo/AUCiv, read-out: Bioavailabilities", "excerpt": "(§1) The absorption from the digestive tract after oral administration can be calculated by comparison of the concentrations of the administered active ingredient determined in the blood plasma after oral and intravenous administration (dose-standardised AUCpo/AUCiv) [AUC=area under the curve]. […] Bioavailabilities of the hydrochloride hydrate of from 88% to 99% were found in dogs, and 75% and 96% in 2 monkeys. Since the absorption rate is at least equal to or greater than the bioavailability determined, very good absorption has thus also been found in these animal species."}, "[2]": {"experiment": "bioavailability after oral administration (AUCpo/AUCiv), monkeys", "conditions": "2 monkeys (individual values); oral vs intravenous, dose-standardised AUCpo/AUCiv; hydrochloride hydrate", "excerpt": "as §1"}, "[3]": {"experiment": "absorption from the digestive tract after oral administration (AUCpo/AUCiv), rat", "conditions": "of the orally administered radioactively labelled substance", "excerpt": "as §1"}}, "note": "“And” between values parts separate entries of the source, which are not always exact repeats. Identical values can stand only once."}
{"smiles": "Cc1cc(S(C)(=O)=O)c(S(C)(=O)=O)cc1C(=O)NC(=N)N.Cl.O", "note": "[hydrochloride hydrate, N-(4,5-bismethanesulfonyl-2-methylbenzoyl)guanidine, hydrochloride hydrate]", "values": [{"measurement": "bioavailability", "setting": "[1]", "result": "88 to 99", "unit": "%"}, {"measurement": "Bioavailabilities", "setting": "[2]", "result": "75% and 96%"}, {"measurement": "absorption rate", "setting": "[3]", "result": 98, "unit": "%"}]}
